Measurements reported in ChEMBL document CHEMBL1137334 (J Med Chem, 2006).
Converted amounts (≈) assume the structure as drawn.

Legend:
A549 = test: Inhibition of A549 cell migration by microdroplet migration assay; format: functional, cell-based; conditions: Homo sapiens
[1] = molecular target: Vascular endothelial growth factor receptor 2 (Homo sapiens, UniProt P35968); test: Inhibition of KDR
[2] = molecular target: Proto-oncogene tyrosine-protein kinase Src (Homo sapiens, UniProt P12931)
Description: Inhibition of human c-Src in NIH3T3 cells

[3] = AUC (0-24h) in mouse at 20 mg/kg, po; format: ADME, organism-based; parameters: time < 24 hr, dose 20 mg/kg, route oral; conditions: plasma
[4] = Dissociation constant, pKa of the basic side chain of compound; format: physicochemical
[5] = Lipophilicity, log D at pH 7.4; format: physicochemical; conditions: buffer
[6] = Aqueous solubility at pH 7.4; format: physicochemical
[7] = Percent of unbound ligand in rat plasma; format: ADME, organism-based
Canis familiaris [8] = species on record: Canis familiaris; test: Half life in male dog; format: ADME, organism-based, Canis lupus familiaris; conditions: in vivo
Canis familiaris [9] = species on record: Canis familiaris; test: Volume of distribution in male dog; format: ADME, organism-based, Canis lupus familiaris; conditions: in vivo
[10] = Bioavailability in male dog; format: ADME, organism-based, Canis lupus familiaris; conditions: in vivo

Chain of Proto-oncogene tyrosine-protein kinase Src (P12931 2-536 limits assumed): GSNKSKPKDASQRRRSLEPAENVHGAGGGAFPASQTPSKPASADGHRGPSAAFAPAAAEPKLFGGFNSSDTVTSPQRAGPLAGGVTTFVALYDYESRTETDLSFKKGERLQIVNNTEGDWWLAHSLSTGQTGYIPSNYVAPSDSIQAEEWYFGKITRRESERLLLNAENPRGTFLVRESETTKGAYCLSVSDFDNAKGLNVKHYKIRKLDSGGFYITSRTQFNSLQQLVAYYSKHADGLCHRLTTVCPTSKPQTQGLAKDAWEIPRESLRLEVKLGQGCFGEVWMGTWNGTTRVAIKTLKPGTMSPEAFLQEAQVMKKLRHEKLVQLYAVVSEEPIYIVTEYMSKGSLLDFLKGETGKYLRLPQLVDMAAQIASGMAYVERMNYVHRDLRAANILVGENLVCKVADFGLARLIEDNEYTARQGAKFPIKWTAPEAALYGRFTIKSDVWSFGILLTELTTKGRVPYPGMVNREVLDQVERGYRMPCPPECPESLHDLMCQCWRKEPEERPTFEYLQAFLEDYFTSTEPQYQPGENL
Chain of Vascular endothelial growth factor receptor 2 (P35968 whole entry): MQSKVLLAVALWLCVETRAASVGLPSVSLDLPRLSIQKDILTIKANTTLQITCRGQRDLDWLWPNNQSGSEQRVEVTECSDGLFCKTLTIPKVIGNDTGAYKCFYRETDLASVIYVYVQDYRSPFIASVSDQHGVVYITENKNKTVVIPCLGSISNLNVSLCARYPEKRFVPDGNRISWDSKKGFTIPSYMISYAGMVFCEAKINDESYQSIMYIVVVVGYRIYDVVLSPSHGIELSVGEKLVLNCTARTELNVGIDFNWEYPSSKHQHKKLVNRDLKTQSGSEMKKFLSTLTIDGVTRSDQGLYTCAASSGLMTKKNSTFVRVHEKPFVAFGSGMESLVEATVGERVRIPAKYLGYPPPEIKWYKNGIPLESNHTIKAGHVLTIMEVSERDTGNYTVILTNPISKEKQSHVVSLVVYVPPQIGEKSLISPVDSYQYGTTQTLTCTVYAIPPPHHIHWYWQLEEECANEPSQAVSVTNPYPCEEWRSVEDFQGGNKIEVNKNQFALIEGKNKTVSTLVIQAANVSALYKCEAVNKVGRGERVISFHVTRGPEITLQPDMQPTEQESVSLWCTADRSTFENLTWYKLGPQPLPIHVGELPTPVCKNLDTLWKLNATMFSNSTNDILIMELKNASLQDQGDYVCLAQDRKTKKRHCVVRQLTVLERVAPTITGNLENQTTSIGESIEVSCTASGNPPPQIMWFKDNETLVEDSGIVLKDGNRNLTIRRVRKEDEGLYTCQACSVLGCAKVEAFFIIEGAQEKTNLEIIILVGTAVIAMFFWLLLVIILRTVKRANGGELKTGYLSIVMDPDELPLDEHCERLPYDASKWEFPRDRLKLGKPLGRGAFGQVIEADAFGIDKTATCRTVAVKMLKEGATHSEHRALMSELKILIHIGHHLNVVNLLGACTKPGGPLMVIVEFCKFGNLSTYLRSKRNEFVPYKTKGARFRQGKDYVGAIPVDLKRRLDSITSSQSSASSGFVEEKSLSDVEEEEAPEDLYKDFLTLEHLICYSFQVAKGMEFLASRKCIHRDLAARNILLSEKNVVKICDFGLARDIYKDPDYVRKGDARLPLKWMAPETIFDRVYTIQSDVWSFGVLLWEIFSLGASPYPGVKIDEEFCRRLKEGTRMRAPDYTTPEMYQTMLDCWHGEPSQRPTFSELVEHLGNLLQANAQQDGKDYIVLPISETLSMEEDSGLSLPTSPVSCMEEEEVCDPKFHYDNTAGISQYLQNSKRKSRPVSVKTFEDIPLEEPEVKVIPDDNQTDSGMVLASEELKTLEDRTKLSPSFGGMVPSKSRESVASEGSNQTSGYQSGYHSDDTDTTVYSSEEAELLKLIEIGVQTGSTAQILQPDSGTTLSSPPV

IC50 (A549)	IC50 [1]	IC50 [2]	Structure (SMILES)	other results
300 nM	40 nM	< 4 nM	COc1ccc(Cl)c(Nc2ncnc3cc(OCCCN4CCN(C)CC4)cc(OC4CCOCC4)c23)c1	
	500 nM	570 nM	COc1cc(OC2CCN(C)CC2)c2c(Nc3cccc4c3OCCO4)ncnc2c1	
		100 nM	CC(C)Oc1cc(OC2CCN(C)CC2)c2c(Nc3c(Cl)ccc4c3OCO4)ncnc2c1	
	50 nM	85 nM	c1cc(Nc2ncnc3cc(OCCN4CCCC4)cc(OC4CCOCC4)c23)c2c(c1)OCCO2	
		230 nM	COc1ccc(Cl)c(Nc2ncnc3cc(OC)cc(OCCCN4CCOCC4)c23)c1	
400 nM			COc1ccc(Cl)c(Nc2ncnc3cc(OCCCN4CCOCC4)cc(OC(C)C)c23)c1	
700 nM		100 nM	CN1CCC(Oc2cccc3ncnc(Nc4c(Cl)ccc5c4OCO5)c23)CC1	
	2500 nM	150 nM	COc1cc(OC2CCN(C)CC2)c2c(Nc3cccc4c3OCO4)ncnc2c1	
300 nM	> 2000 nM	30 nM	COc1ccc(Cl)c(Nc2ncnc3cc(OC)cc(OC4CCN(C)CC4)c23)c1	
		400 nM	COc1ccc(Cl)c(Nc2ncnc3cccc(OC4CCOCC4)c23)c1	
300 nM	> 10000 nM	6 nM	Clc1ccc2c(c1Nc1ncnc3cc(OCCN4CCCC4)cc(OC4CCOCC4)c13)OCO2	AUC(0-t) at 24 h [3]: 9000 ng·h/mL
		5 nM	COc1cc2c(Nc3c(Cl)ccc4c3OCO4)ncnc2cc1OCCCN1CCCC1	AUC(0-t) at 24 h [3]: 13000 ng·h/mL
	650 nM	80 nM	c1cc(Nc2ncnc3cc(OCCN4CCCC4)cc(OC4CCOCC4)c23)c2c(c1)OCO2	
	> 5000 nM	300 nM	COc1ccc(Cl)c(Nc2ncnc3cccc(OC4CCN(C)CC4)c23)c1	
290 nM	6500 nM	20 nM	CC(=O)N1CCN(CCOc2cc(OC(C)C)c3c(Nc4c(F)ccc5c4OCO5)ncnc3c2)CC1	
1200 nM	5000 nM	75 nM	Clc1ccc2c(c1Nc1ncnc3cc(OCCN4CCCC4)cc(N4CCOCC4)c13)OCO2	
		600 nM	COc1ccc(Cl)c(Nc2ncnc3ccc(OCCCN4CCN(C)CC4)c(OC4CCOCC4)c23)c1	
100 nM	10000 nM	5 nM	CC(C)Oc1cc(OCCN2CCOCC2)cc2ncnc(Nc3c(Cl)ccc4c3OCO4)c12	pKa [4]: 6.5; logD [5]: 3.7; solubility [6]: 2 µM (≈ 0.974 µg/mL); fraction unbound [7]: 0.025
		500 nM	CN1CCC(COc2cccc3ncnc(Nc4c(Cl)ccc5c4OCO5)c23)CC1	
	50 nM	< 4 nM	COc1ccc(Cl)c(Nc2ncnc3cc(OCCCN4CCOCC4)cc(OC4CCOC4)c23)c1 (racemic)	
480 nM			COc1ccc(Cl)c(Nc2ncnc3cc(OCC4CCN(C)CC4)c(OC)cc23)c1 [AZM-475271]	pKa [4]: 9; logD [5]: 2; solubility [6]: 324 µM (≈ 144 µg/mL); fraction unbound [7]: 0.075; T1/2 (Canis familiaris [8]): 4.2 h; Vdss (Canis familiaris [9]): 43 L/kg; bioavailability [10]: 42%
